From patent publication US6933396B2, “Process to prepare psorospermin” (Cylene Pharmaceuticals, priority 2002, dated 2005)

Legend:
[1] = Blood plasma levels (pharmacokinetics) after i.v. injection in rats; assay type: in vivo, Sprague Dawley rats; settings: for blood plasma levels of parent compound: over 24 h
Procedure: Blood plasma levels of psorospermin over 24 h after a 5 mg/Kg injection i.v. in Sprague Dawley rats were measured. Blood plasma levels of 5-methoxy-psorospermin over 24 h after a 5 mg/Kg injection i.v. in Sprague Dawley rats were measured.

various tumor cell lines = experiment: MTS cytotoxicity / cell viability assays with various tumor cell lines; assay type: cell-based
Source text: FIG. 1 illustrates a comparison of (R,R)-psorospermin with (R,R)-5-methoxy-psorospermin, (R,S)-5-methoxy-psorospermin, (S,R)-5-methoxy-psorospermin and (S,S)-5-methoxy-psorospermin in cell viability assays with various tumor cell lines.
MTS cytotoxicity data was collected for a comparison of (R,R)-psorospermin with (R,R)-5-methoxy-psorospermin, (R,S)-5-methoxy-psorospermin, (S,R)-5-methoxy-psorospermin and (S,S)-5-methoxy-psorospermin in cell viability assays with various tumor cell lines, the results of which are shown in FIG. 1.

[2] = 5 mg/Kg injection i.v., Sprague Dawley rats

Compound | time for which a therapeutic dose is exhibited in rodents ([1]; 5 mg/Kg injection i.v., Sprague Dawley rats, FIG. 3) | blood plasma levels of parent compound [1, 2] | systemic presence ([1]; in comparison with 2′R,3′R psorospermin) | activity relative to stereoisomeric counterparts (various tumor cell lines; compared with (2R′, 3S′) or (2S′, 3S′) counterparts) | antitumor activity in a variety of cell lines (various tumor cell lines; variety of cell lines including those of solid tumors and lymphomas, compared with natural product psorospermin) | blood plasma levels of parent compound ([1]; 5 mg/Kg injection i.v., Sprague Dawley rats, listed as natural product)
COc1cccc2c(=O)c3c(OC)cc4c(c3oc12)C[C@H]([C@@]1(C)CO1)O4 [(R,R)-5-Methoxypsorospermin, (2′R,3′R) 5-Methoxy Psorospermin] | exceeds two hours | prolonged measurable quantities of the parent with a good half life | prolonged systemic presence in comparison with 2′R,3′R psorospermin | more active than their (2R′, 3S′) or (2S′, 3S′) counterparts | comparable antitumor activity to that of the natural product psorospermin | 
COc1cc2c(c3oc4c(O)cccc4c(=O)c13)C[C@H]([C@@]1(C)CO1)O2 [psorospermin, (2′R,3′R) Psorospermin] |  | Little parent compound can be detected within the first 24 h after dosing |  |  |  | could be barely detected at any time point
